Reference: US20230413824A1, “AGROCHEMICAL COMPOSITION COMPRISING 3-SUBSTITUTED PHENYLAMIDINE COMPOUNDS AND USE THEREOF” (PI INDUSTRIES LIMITED, priority 2020, published 2023)
Read-outs that look alike come from different tables or passages of the source.

Experiments:
Assay type in all cases: in vivo
[1] = test system: Phakopsora pachyrhizi; assay: Phakopsora pachyrhizi test in soybean (preventive, glasshouse); conditions: single compound; for pest or weed control at 0.0001 ppm / pest or weed control at 0.001 ppm / pest or weed control at 0.01 ppm / pest or weed control at 0.1 ppm / pest or weed control at 0.05 ppm: Phakopsora pachyrhizi, read-out: Observed Efficacy (%)
[2] = test system: Alternaria solani; assay: Alternaria solani test in tomato (preventive, glasshouse); conditions: for pest or weed control at 1 ppm / pest or weed control at 5 ppm / pest or weed control at 20 ppm / pest or weed control at 0.05 ppm / pest or weed control at 0.1 ppm: Alternaria solani; for pest or weed control at 1 ppm: Conc. 1 ppm; for pest or weed control at 5 ppm: Conc. 5 ppm; for pest or weed control at 20 ppm: Conc. 20 ppm
[3] = test system: Pyricularia oryzae; assay: whole plant or invertebrate; conditions: for Observed Efficacy: single compound, preventive spray, rice; for pest or weed control at 1 ppm / pest or weed control at 5 ppm / pest or weed control at 20 ppm / pest or weed control at 0.05 ppm / pest or weed control at 0.1 ppm: Pyricularia oryzae, read-out: Observed Efficacy
[4] = test system: Erysiphe cichoracearum; assay: Erysiphe cichoracearum test in cucumber (preventive, glasshouse); conditions: single compound
[5] = test system: Botrytis cinerea; assay: Botrytis cinerea test in tomato (preventive, glasshouse); conditions: single compound; for pest or weed control at 1 ppm: Conc. 1 ppm; for pest or weed control at 1 ppm / pest or weed control at 5 ppm / pest or weed control at 20 ppm / pest or weed control at 0.05 ppm / pest or weed control at 0.1 ppm: read-out: Observed Efficacy (%); for pest or weed control at 5 ppm: Conc. 5 ppm; for pest or weed control at 20 ppm: Conc. 20 ppm
[6] = test system: Septoria nodorum; assay: Parastagonospora nodorum/Septoria nodorum/Stagnospora nodorum test in wheat (preventive, glasshouse); conditions: single compound
Procedure: The single compounds or compound combinations were dissolved in 2% DMSO/Acetone and then mixed with water containing emulsifier to a calibrated spray volume of 50 mL. The spray solutions were poured into spray bottles for further applications.
To test the preventive activity of compounds, healthy young wheat plants, raised in the greenhouse, were sprayed with the single compound or mixture preparation at the stated application rates inside the spray cabinets using hollow cone nozzles. One day after treatment, the plants were inoculated with a suspension containing 2.8×10^6 Stagnospora nodorum inoculum. The inoculated plants were then kept in a greenhouse chamber at 22-25° C. temperature and 90-100% relative humidity for disease expression.
A visual assessment of the performance of the compounds and respective compound combinations was carried out by rating the disease severity (0-100% scale) on treated plants 3, 7 and 10 days after application. Efficacy (% control) of the compounds was calculated by comparing the disease rating in the treatment with the one of the untreated control. The compounds were also assessed for their plant compatibility by recording symptoms like necrosis, chlorosis & stunting. The results are shown for the compound of formula (I-1) to (I-5) in Table E1-E5.

[7] = 0.05 ppm, preventive spray on soybean
[8] = 0.1 ppm, preventive spray on soybean
[9] = Conc. 0.05 ppm, soybean, preventive, Table D4
[10] = Conc. 0.05 ppm, soybean, preventive, Table D5
[11] = Conc. 0.1 ppm, soybean, preventive, Table D4
[12] = Conc. 0.1 ppm, soybean, preventive, Table D5
[13] = Table B3, single compound, Conc. 0.05 ppm, preventive
[14] = Table B3, single compound, Conc. 0.1 ppm, preventive
[15] = Table B4, single compound, Conc. 0.1 ppm, preventive
[16] = single compound, 0.05 ppm, preventive
[17] = single compound, 0.05 ppm, preventive spray
[18] = single compound, 0.1 ppm, preventive
[19] = single compound, 0.1 ppm, preventive spray
[20] = 0.1 ppm, preventive spray on cucumber
[21] = Table F4, Conc. 0.05 ppm, Botrytis cinerea in tomato, preventive
[22] = Table F4, Conc. 0.1 ppm, Botrytis cinerea in tomato, preventive
[23] = Conc. 0.1 ppm, preventive spray on tomato, % control vs untreated
[24] = single compound, Conc. 0.05 ppm, preventive spray
[25] = single compound, preventive spray, read-out: Observed Efficacy
[26] = Golovinomyces cichoracearum, cucumber, preventive, read-out: Observed Efficacy (%)
[27] = Botrytis cinerea, preventive spray on tomato, % control vs untreated
[28] = Parastagonospora nodorum, read-out: Observed Efficacy (%)
[29] = Table B4, single compound, preventive, read-out: Observed Efficacy (%)
[30] = Golovinomyces cichoracearum, preventive spray on cucumber, read-out: Observed Efficacy (%)
[31] = Table F4, Botrytis cinerea in tomato, preventive
[32] = single compound, 0.05 ppm, preventive spray, read-out: Observed Efficacy (%)
[33] = single compound, 0.1 ppm, preventive spray, read-out: Observed Efficacy (%)
[34] = Botrytis cinerea, Conc. 0.05 ppm, preventive spray on tomato, % control vs untreated
[35] = Botrytis cinerea, Conc. 0.1 ppm, preventive spray on tomato, % control vs untreated
[36] = Parastagonospora nodorum, 0.1 ppm, read-out: Observed Efficacy (%)

SMILES: Cn1cc(C(=O)Nc2cccc3c2[C@@H]2CC[C@H]3C2=C(Cl)Cl)c(C(F)F)n1 (racemic) [Benzovindiflupyr, benzovindiflupyr]
- Observed Efficacy (%) [1, 7]: 27%
- Observed Efficacy (%) [1, 8]: 38%
- Observed Efficacy (%) [1, 9]: 27%
- Observed Efficacy (%) [1, 10]: 27%
- Observed Efficacy (%) [1, 11]: 38%
- Observed Efficacy (%) [1, 12]: 38%
- Observed Efficacy (%) [2, 13]: 14%
- Observed Efficacy (%) [2, 14]: 29%
- Observed Efficacy (%) ([2]; Table B4, single compound, Conc. 0.05 ppm, preventive): 14%
- Observed Efficacy (%) [2, 15]: 29%
- Observed Efficacy (%) [2, 16]: 14%
- Observed Efficacy (%) [2, 17]: 14%
- Observed Efficacy (%) [2, 18]: 29%
- Observed Efficacy (%) [2, 19]: 29%
- Observed Efficacy ([3]; Conc. 0.05 ppm): 17%
- Observed Efficacy (%) ([4]; 0.05 ppm, cucumber, preventive): 24%
- Observed Efficacy (%) ([4]; 0.05 ppm, preventive spray on cucumber): 24%
- Observed Efficacy (%) ([4]; 0.1 ppm, cucumber, preventive): 29%
- Observed Efficacy (%) [4, 20]: 29%
- Observed Efficacy (%) [5, 21]: 33%
- Observed Efficacy (%) [5, 22]: 42%
- Observed Efficacy (%) ([5]; Table F5, Conc. 0.1 ppm, Botrytis cinerea in tomato, preventive): 42%
- Observed Efficacy (%) ([5]; Conc. 0.05 ppm, preventive spray on tomato, % control vs untreated): 33%
- Observed Efficacy (%) [5, 23]: 42%
- Observed Efficacy (%) ([6]; 0.05 ppm): 29%

SMILES: CO/C=C(/C(=O)OC)c1ccccc1Oc1cc(Oc2ccccc2C#N)ncn1 [Azoxystrobin, azoxystrobin]
- Observed Efficacy (%) [1, 7]: 15%
- Observed Efficacy (%) [1, 8]: 22%
- Observed Efficacy (%) [1, 9]: 15%
- Observed Efficacy (%) [1, 10]: 15%
- Observed Efficacy (%) [1, 11]: 22%
- Observed Efficacy (%) [1, 12]: 22%
- Observed Efficacy (%) [2, 13]: 33%
- Observed Efficacy (%) [2, 14]: 49%
- Observed Efficacy (%) [2, 16]: 33%
- Observed Efficacy (%) [2, 17]: 33%
- Observed Efficacy (%) [2, 18]: 49%
- Observed Efficacy (%) [2, 19]: 49%
- Observed Efficacy [2, 24]: 33%
- Observed Efficacy ([2]; single compound, Conc. 0.1 ppm, preventive spray): 49%
- Observed Efficacy ([3]; Conc. 0.05 ppm): 21%
- Observed Efficacy ([3]; Conc. 0.1 ppm): 26%
- Observed Efficacy (%) ([4]; 0.1 ppm, cucumber, preventive): 50%
- Observed Efficacy (%) [4, 20]: 50%
- Observed Efficacy (%) [5, 23]: 45%
- Observed Efficacy (%) ([6]; 0.05 ppm): 42%
- Observed Efficacy (%) ([6]; 0.1 ppm): 47%

SMILES: CCN(C)C=Nc1cc(Cl)cc(Cc2cccc(C)c2)c1C [Compound (I-1), N′-(5-chloro-2-methyl-3-(3-methylbenzyl)phenyl)-N-ethyl-N-methylformimidamide]
- pest or weed control at 0.0001 ppm ([1]; 0.0001 ppm, preventive spray on soybean): 40%
- pest or weed control at 0.001 ppm ([1]; 0.001 ppm, preventive spray on soybean): 50%
- pest or weed control at 0.01 ppm ([1]; 0.01 ppm, preventive spray on soybean): 62%
- pest or weed control at 1 ppm [2, 25]: 20%
- pest or weed control at 5 ppm [2, 25]: 27%
- pest or weed control at 20 ppm [2, 25]: 40%
- pest or weed control at 1 ppm [3]: 17%
- pest or weed control at 5 ppm [3]: 27%
- pest or weed control at 20 ppm [3]: 37%
- pest or weed control at 1 ppm [4, 26]: 13%
- pest or weed control at 5 ppm [4, 26]: 33%
- pest or weed control at 20 ppm ([4]; Golovinomyces cichoracearum, 20 ppm, cucumber, preventive, read-out: Observed Efficacy (%)): 57%
- pest or weed control at 1 ppm [5, 27]: 20%
- pest or weed control at 5 ppm [5, 27]: 27%
- pest or weed control at 20 ppm [5, 27]: 47%
- pest or weed control at 1 ppm [6, 28]: 17%
- pest or weed control at 5 ppm [6, 28]: 20%
- pest or weed control at 20 ppm [6, 28]: 43%

SMILES: CCN(C)C=Nc1cc(C)cc(Cc2cccc(F)c2)c1C [Compound (I-4), N-ethyl-N′-(3-(3-fluorobenzyl)-2,5-dimethylphenyl)-N-methylformimidamide]
- pest or weed control at 0.0001 ppm ([1]; Conc. 0.0001 ppm, soybean, preventive, Table D4): 43%
- pest or weed control at 0.001 ppm ([1]; Conc. 0.001 ppm, soybean, preventive, Table D4): 47%
- pest or weed control at 0.01 ppm ([1]; Conc. 0.01 ppm, soybean, preventive, Table D4): 59%
- pest or weed control at 1 ppm [2, 29]: 20%
- pest or weed control at 5 ppm [2, 29]: 27%
- pest or weed control at 20 ppm [2, 29]: 37%
- pest or weed control at 1 ppm [3]: 17%
- pest or weed control at 5 ppm [3]: 23%
- pest or weed control at 20 ppm [3]: 33%
- pest or weed control at 1 ppm [4, 30]: 33%
- pest or weed control at 5 ppm [4, 30]: 63%
- pest or weed control at 1 ppm [5, 31]: 10%
- pest or weed control at 5 ppm [5, 31]: 17%
- pest or weed control at 20 ppm [5, 31]: 23%
- pest or weed control at 1 ppm [6, 28]: 20%
- pest or weed control at 5 ppm [6, 28]: 23%
- pest or weed control at 20 ppm [6, 28]: 27%

SMILES: CC1COC(Cn2cncn2)(c2ccc(Oc3ccc(Cl)cc3)cc2Cl)O1 (stereo not drawn) [Difenconazole, difenoconazole]
- pest or weed control at 0.1 ppm [1, 8]: 24%
- pest or weed control at 0.05 ppm [1, 9]: 17%
- Observed Efficacy (%) [1, 11]: 24%
- Observed Efficacy (%) [1, 12]: 24%
- pest or weed control at 0.05 ppm [2, 32]: 42%
- pest or weed control at 0.1 ppm [2, 33]: 47%
- pest or weed control at 0.05 ppm ([2]; single compound, Conc. 0.05 ppm, preventive spray, read-out: Observed Efficacy): 42%
- pest or weed control at 0.1 ppm ([2]; single compound, Conc. 0.1 ppm, preventive spray, read-out: Observed Efficacy): 47%
- Observed Efficacy (%) [2, 15]: 47%
- Observed Efficacy (%) [2, 16]: 42%
- Observed Efficacy (%) [2, 18]: 47%
- pest or weed control at 0.05 ppm [3]: 24%
- pest or weed control at 0.1 ppm [3]: 26%
- pest or weed control at 0.05 ppm [5, 34]: 42%
- pest or weed control at 0.1 ppm [5, 35]: 52%
- Observed Efficacy (%) [5, 21]: 42%
- Observed Efficacy (%) [5, 22]: 52%
- pest or weed control at 0.1 ppm [6, 36]: 32%

SMILES: Cn1cc(C(=O)Nc2ccccc2-c2cc(F)c(F)c(F)c2)c(C(F)F)n1 [Fluxapyroxad, fluxapyroxad]
- Observed Efficacy (%) [1, 10]: 46%
- Observed Efficacy (%) [1, 12]: 59%
- Observed Efficacy (%) [2, 13]: 40%
- Observed Efficacy (%) [2, 14]: 56%
- Observed Efficacy (%) [2, 17]: 40%
- Observed Efficacy (%) [2, 19]: 56%
- Observed Efficacy [2, 24]: 40%
- Observed Efficacy ([3]; Conc. 0.05 ppm): 24%
- Observed Efficacy ([3]; Conc. 0.1 ppm): 32%
- Observed Efficacy (%) [5, 23]: 38%
- Observed Efficacy (%) ([6]; 0.05 ppm): 3%
- Observed Efficacy (%) ([6]; 0.1 ppm): 5%

SMILES: CON=C(C(=O)OC)c1ccccc1CON=C(C)c1cccc(C(F)(F)F)c1 [Trifloxystrobin, trifloxystrobin]
- pest or weed control at 0.1 ppm [1, 8]: 32%
- pest or weed control at 0.05 ppm [1, 9]: 22%
- Observed Efficacy (%) [1, 11]: 32%
- Observed Efficacy (%) [1, 12]: 32%
- pest or weed control at 0.05 ppm [2, 32]: 33%
- pest or weed control at 0.1 ppm [2, 33]: 40%
- Observed Efficacy (%) [2, 14]: 40%
- pest or weed control at 0.05 ppm [3]: 24%
- pest or weed control at 0.1 ppm [3]: 32%
- pest or weed control at 0.05 ppm [5, 34]: 26%
- pest or weed control at 0.1 ppm [5, 35]: 33%
- Observed Efficacy (%) [5, 21]: 26%
- Observed Efficacy (%) [5, 22]: 33%
- pest or weed control at 0.05 ppm ([6]; Parastagonospora nodorum, 0.05 ppm, read-out: Observed Efficacy (%)): 5%
- pest or weed control at 0.1 ppm [6, 36]: 18%
